Reference: article PMC7732531 (Frontiers in Pharmacology, 2020)
Several values for one entry are separate records, joined by “and”; a condition that tells them apart may be missing. Equal values may be shown once. Read-outs that look alike come from different tables or passages of the source.

What was measured:
in vitro [1] = settings: rat, microsomes, pH 7.4
[2] = Blood/plasma partitional ratio, rat blood; type: in vitro ADME; settings: fresh pooled whole blood with heparin, rat whole blood, 37°C, read-out: blood/plasma partitioning (R b/P)
Protocol: The blood/plasma partitional ratio (R b/p) in rat and human blood was measured in vitro using fresh pooled blood including heparin. Whole blood was preincubated at 37°C in a water bath, and spiked with YL-IPA08 at 1 µM. The blood samples were incubated at 37°C for 1 h. After incubation, aliquots of 25 µl spiked whole blood were removed, and the remaining blood was centrifuged at 2,000 × g for 10 min, after which 25 µl aliquots of plasma were removed. Obtained blood and plasma samples were spiked with same volume of blank plasma or blood, respectively, and then immediately precipitated by adding 4× volumes of acetonitrile containing IS to get the same matrix. The concentrations of YL-IPA08 in blood and plasma were determined by LC-MS/MS.

[3] = human, microsomes, 0 h, 1 μM, pH 7.4
in vitro [4] = type: in vitro ADME; settings: rat
Protocol: (§1) The fraction of unbound YL-IPA08 in plasma and liver microsomes of rat and human, and brain homogenates of rat were determined utilizing Rapid Equilibrium Dialysis method ([Waters et al., 2008]). Rat brain homogenate was harvested in 4-fold volume (w/v) of PBS (pH 7.4). YL-IPA08 were spiked into fresh plasma, rat brain homogenate, liver microsomes (0.2 mg/ml protein) at concentration of 1 µM, and then dialyzed against biomatrices on a shaker at 37°C for 4 h. To avoid the high non-specific binding of YL-IPA08, 0.01% Tween 80 was added in the incubation mixture. At the end of the incubation, protein was precipitated with acetonitrile (containing IS) and analyzed by LC-MS/MS. Phenacetin, quinidine, and warfarin were selected as positive control for the protein binding test.
(§2) The unbound fraction of YL-IPA08 in plasma or liver microsomes (ƒu,x) was calculated as shown in Eq. 2, and unbound fraction in the tissue homogenate (ƒu,b) was calculated according to Eq. 3. fu,x = Concbuffer chamber/Concplasma/liver microsomes chamber (2) fu,b = Concbuffer chamber/Concbrain homogenate chamber (3) The measured unbound fractions would be higher when a tissue is homogenized and diluted in buffer, the unbound fractions in an undiluted tissues (ƒu,brain) were calculated using Eq. 4 ([Kalvass and Maurer, 2002]). Undiluted fu,brain=1/D/((1/fu,brain homogenate)−1)+1/D (4) Where D represents the fold of dilution factor in brain homogenates.

TSPO = experiment: In vitro TSPO binding, crude mitochondrial fraction from rat cerebellum; settings: corrected by binding fraction of 10-volume brain homogenate
From the text: Unbound fractions of YL-IPA08 in rat plasma and brain homogenate were 0.6 and 0.49%, respectively. K p value of brain to plasma in rats was obtained under steady state to reach brain equilibrium in a transient dosing regimen. Then, K p,uu achieved 0.18. The unbound concentration of YL-IPA08 in brain can be estimated based on the plasma concentrations after rats receiving different dosages of YL-IPA08 via oral dosing (Table 4). For example, the unbound concentration of 6.5 pg/g in brain can be achieved after 1 mg/kg oral dosing. […] The unbound concentration in the incubates was obtained with 0.0108 nM (e.g., 4.9 pg/ml) by correcting the binding fraction of 10-volume brain homogenate (0.047).

[5] = Protein binding by rapid equilibrium dialysis, rat brain homogenate; type: in vitro ADME
Protocol: as §1, §2

[6] = Bioavailability study in rats (i.v. and p.o.); type: in vivo; settings: male, rat, plasma; for MRT last: read-out: MRT(0–t)
Protocol: Male SD rats (200-240 g) were obtained from Beijing Vital River Laboratory Animal Technology Co., Ltd. Animals were housed in a temperature- and humidity-controlled room with a 12 h light/dark cycle. They were fasted 12 h before the experiments and had ad libitum access to water. The animal experiments were conducted in the Beijing Center for Drug Safety Evaluation and according to a protocol (IACUC-DWZX-2020-691) approved by the Institutional Animal Care and Use Committee of the Center, which followed the guidelines of the Association for Assessment and Accreditation of Laboratory Animal Care International (AAALAC). […] Pharmacokinetic parameters were calculated by the noncompartmental method using WinNonlin 7.0 (Pharsight, CA). The area under the plasma concentration time curve (AUC) from time 0 to the last time point with a measurable concentration (AUC0-t) was calculated by trapezoidal method. Bioavailability (%F) was calculated as the ratio of the mean dose-normalized AUC values for oral and intravenous dosed groups [Fp.o. = […].)]. In vivo plasma clearance and volume of distribution were archived from the pharmacokinetic study via i.v. injection.

[7] = Metabolic stability in human liver microsomes (NADPH / UDPGA); settings: HLM
in vivo = settings: male, rat, po, 1 mg/kg
Protocol: The surgical procedure for portal vein catheter insertion was performed according to reference ([Matsuda et al., 2012]). Male SD rats (250–280 g) were purchased from Beijing Vital River Laboratory Animal Technology Co., Ltd. (Beijing, China). Rats were anesthetized with 2% pentobarbital sodium (0.2–0.3 mg/100 g) intraperitoneally dosed. Cannulation into the jugular vein was performed by the method of Murakami reported ([Murakami et al., 2003]) with minor modification. Briefly, an incision of ∼0.5 cm near right clavicle was made and the jugular vein was exposed. Next, this vein was cannulated with ∼12.5 cm of silicone gel tubing (0.6 mm I.D. × 0.9 mm O.D., Skillsmodel Inc., Beijing, China). The other side of the tubing was passed through the back skin. 2.5 cm midline incision was made in the abdominal cavity close to ensiform process and the portal vein was detached. To prevent bleeding, the portal vein was ligated temporarily as the catheter was inserted. The silicone tubing (22 cm, 0.6 mm I.D. × 0.9 mm O.D., Skillsmodel Inc., Beijing, China) was inserted immediately and fixed by a purse-string suture on the portal vein. The time to reperfusion was about 1 min after intercepted blood flow. In addition, a catheter with trumpet-shaped opening was used to prevent the catheter from slipping out of the vessel and minimize the effect on blood flow. Another end of the catheter was passed subcutaneously to the skin close to the scapula.
Blood samples were collected at 0, 0.083, 0.25, 0.5, 1, 2, 4, 6, 8 and 12 h. Blood (approximately 100 µl) was collected from the jugular and portal veins into tubes containing heparin on ice and centrifuged within 1 h of collection. Plasma was harvested and stored at −20°C for bioanalysis.
FaFg was calculated using mass balance method and rat portal blood flow (Qpv) of 32 ml/min/kg, where Rb/p is used to convert plasma concentrations to blood concentrations.

[8] = Metabolic stability in rat liver microsomes (NADPH / UDPGA); settings: RLM

CCN(Cc1ccccn1)C(=O)Cc1c(-c2ccc(Cl)c(Cl)c2)nc2cc(C)ccn12 [YL-IPA08]
microsomal CLint at 1 μM (in vitro [1]): 53 ± 20 µL/min/mg | blood plasma ratio at 1 h, 1 µM [2]: 1.12 ± 0.08 | percent of remaining [3]: 100.00% | Concentration, Cbuffer chamber (in vitro [4]; 4 h, 1 µM): 168.00 ± 5.66 nM | Concentration, Cplasma/microsome chamber (in vitro [4]; 4 h, 1 µM): 393.00 ± 18.03 nM | Protein biding (%) (in vitro [4]; 4 h, 1 µM): 57.14 ± 2.92% | fraction unbound at 4 h, 1 µM (in vitro [4]; microsomes): 0.428 | unbound concentration in the incubates / in vitro TSPO-binding activity (TSPO): 4.9 pg/mL | Protein biding (%) ([5]; Rat brain homogenate, 1 µM, dialysis 4 h): 99.51 ± 0.01% | Concentration, Cbuffer chamber ([5]; Rat brain homogentate, 4 h): 18.85 ± 0.21 nM | Concentration, Cplasma/microsome chamber ([5]; rat, 4 h, 1 µM, pH 7.4): 788.33 ± 8.39 nM | fraction unbound at 4 h, 1 µM ([5]; rat, brain homogenate, pH 7.4): 0.0049 | AUC(0-inf) ([6]; SD, iv, i.v. 0.3 mg/kg): 71.3 ± 12.3 ng·h/mL | AUC(0-t) ([6]; SD, iv, i.v. 0.3 mg/kg): 70.6 ± 12.2 ng·h/mL | clearance ([6]; SD, iv, i.v. 0.3 mg/kg): 71.7 ± 11.5 mL/min/kg | half-life ([6]; SD, iv, i.v. 0.3 mg/kg): 1.13 ± 0.07 h | concentration at 0.033 h ([6]; SD, iv, i.v. 0.3 mg/kg, 0.033 h): 220 ± 32.5 ng/mL | concentration at 0.083 h ([6]; SD, iv, i.v. 0.3 mg/kg): 140 ± 36.2 ng/mL | concentration at 0.25 h ([6]; SD, iv, i.v. 0.3 mg/kg): 38.9 ± 5.41 ng/mL | concentration at 0.5 h ([6]; SD, iv, i.v. 0.3 mg/kg): 18.2 ± 1.29 ng/mL | concentration at 1 h ([6]; SD, iv, i.v. 0.3 mg/kg): 8.44 ± 1.06 ng/mL | concentration at 2 h ([6]; SD, iv, i.v. 0.3 mg/kg): 4.3 ± 0.57 ng/mL | concentration at 4 h ([6]; SD, iv, i.v. 0.3 mg/kg): 1.84 ± 0.39 ng/mL | concentration at 6 h ([6]; SD, iv, i.v. 0.3 mg/kg): 1.09 ± 0.22 ng/mL | concentration at 8 h ([6]; SD, iv, i.v. 0.3 mg/kg): 0.81 ± 0.08 ng/mL | concentration at 12 h ([6]; SD, iv, i.v. 0.3 mg/kg): 0.48 ± 0.06 ng/mL | MRT last ([6]; SD, iv, i.v. 0.3 mg/kg): 1.36 ± 0.11 h | Vd ([6]; SD, iv, i.v. 0.3 mg/kg, read-out: Vz): 6.98 ± 0.74 L/kg | AUC(0-inf) ([6]; SD, po, p.o. 1 mg/kg): 13.6 ± 4.37 ng·h/mL | AUC(0-t) ([6]; SD, po, p.o. 1 mg/kg): 12.5 ± 3.88 ng·h/mL | Cmax ([6]; SD, po, p.o. 1 mg/kg): 5.99 ± 1.36 ng/mL | Tmax ([6]; SD, po, p.o. 1 mg/kg): 3 ± 1.8 min | half-life ([6]; SD, po, p.o. 1 mg/kg): 1.66 ± 0.68 h | concentration at 0.083 h ([6]; SD, po, p.o. 1 mg/kg): 5.43 ± 1.96 ng/mL | concentration at 0.25 h ([6]; SD, po, p.o. 1 mg/kg): 5.22 ± 0.65 ng/mL | concentration at 0.5 h ([6]; SD, po, p.o. 1 mg/kg): 3.71 ± 0.79 ng/mL | concentration at 1 h ([6]; SD, po, p.o. 1 mg/kg): 3 ± 0.8 ng/mL | concentration at 2 h ([6]; SD, po, p.o. 1 mg/kg): 1.65 ± 0.44 ng/mL | concentration at 4 h ([6]; SD, po, p.o. 1 mg/kg): 1.02 ± 0.55 ng/mL | concentration at 6 h ([6]; SD, po, p.o. 1 mg/kg): 0.63 ± 0.31 ng/mL | concentration at 8 h ([6]; SD, po, p.o. 1 mg/kg): 0.63 ± 0.25 ng/mL | concentration at 12 h ([6]; SD, po, p.o. 1 mg/kg): 0.56 ± 0.27 ng/mL | MRT last ([6]; SD, po, p.o. 1 mg/kg): 3.35 ± 1.27 h | AUC(0-inf) ([6]; SD, po, p.o. 3 mg/kg): 39.9 ± 9.81 ng·h/mL | AUC(0-t) ([6]; SD, po, p.o. 3 mg/kg): 36.9 ± 9.57 ng·h/mL | Cmax ([6]; SD, po, p.o. 3 mg/kg): 19.2 ± 16.4 ng/mL | Tmax ([6]; SD, po, p.o. 3 mg/kg): 9 ± 10.2 min | half-life ([6]; SD, po, p.o. 3 mg/kg): 2.47 ± 1.54 h | concentration at 0.083 h ([6]; SD, po, p.o. 3 mg/kg): 18.9 ± 16.6 ng/mL | concentration at 0.25 h ([6]; SD, po, p.o. 3 mg/kg): 9.25 ± 4.57 ng/mL | concentration at 0.5 h ([6]; SD, po, p.o. 3 mg/kg): 7.42 ± 3.58 ng/mL | concentration at 1 h ([6]; SD, po, p.o. 3 mg/kg): 6.3 ± 3.02 ng/mL | concentration at 2 h ([6]; SD, po, p.o. 3 mg/kg): 4.07 ± 0.73 ng/mL | concentration at 4 h ([6]; SD, po, p.o. 3 mg/kg): 3.5 ± 0.73 ng/mL | concentration at 6 h ([6]; SD, po, p.o. 3 mg/kg): 2.35 ± 0.96 ng/mL | concentration at 8 h ([6]; SD, po, p.o. 3 mg/kg): 1.95 ± 0.51 ng/mL | concentration at 12 h ([6]; SD, po, p.o. 3 mg/kg): 0.84 ± 0.26 ng/mL | MRT last ([6]; SD, po, p.o. 3 mg/kg): 4.61 ± 1.49 h | AUC(0-inf) ([6]; SD, po, p.o. 10 mg/kg): 107 ± 30.2 ng·h/mL | AUC(0-t) ([6]; SD, po, p.o. 10 mg/kg): 104 ± 29.4 ng·h/mL | Cmax ([6]; SD, po, p.o. 10 mg/kg): 60.9 ± 44.9 ng/mL | Tmax ([6]; SD, po, p.o. 10 mg/kg): 9 ± 10.2 min | half-life ([6]; SD, po, p.o. 10 mg/kg): 2.31 ± 1.32 h | concentration at 0.083 h ([6]; SD, po, p.o. 10 mg/kg): 60.7 ± 45.1 ng/mL | concentration at 0.25 h ([6]; SD, po, p.o. 10 mg/kg): 20.5 ± 8.3 ng/mL | concentration at 0.5 h ([6]; SD, po, p.o. 10 mg/kg): 15.9 ± 4.1 ng/mL | concentration at 1 h ([6]; SD, po, p.o. 10 mg/kg): 10.2 ± 3.5 ng/mL | concentration at 2 h ([6]; SD, po, p.o. 10 mg/kg): 7.1 ± 2.7 ng/mL | concentration at 4 h ([6]; SD, po, p.o. 10 mg/kg): 5.63 ± 2.23 ng/mL | concentration at 6 h ([6]; SD, po, p.o. 10 mg/kg): 4.39 ± 2.71 ng/mL | concentration at 8 h ([6]; SD, po, p.o. 10 mg/kg): 3.61 ± 2.13 ng/mL | concentration at 12 h ([6]; SD, po, p.o. 10 mg/kg): 3.18 ± 1.43 ng/mL | concentration at 24 h ([6]; SD, po, p.o. 10 mg/kg, 24 h): 1.04 ± 0.66 ng/mL | MRT last ([6]; SD, po, p.o. 10 mg/kg): 7.73 ± 2.79 h | bioavailability ([6]; SD, po, printed in the p.o. 3 mg/kg column, read-out: F): 5.59% | bioavailability ([6]; Sprague-Dawley (SD), oral administration (1–10 mg/kg), read-out: bioavailability): ~6% | Clint normalized by CYP content [7]: 3.47 ± 0.04 ml/min/nmol CYP protein and 2.76 ± 0.05 ^a ml/min/nmol CYP protein | concentration at 0.5 h (in vivo; SD, Plasma concentration): 77 ± 22.7 ng/mL | concentration at 1 h (in vivo; SD, Plasma concentration): 75.5 ± 26.7 ng/mL | concentration at 2 h (in vivo; SD, Plasma concentration): 78.3 ± 38.3 ng/mL | concentration at 4 h (in vivo; SD, Plasma concentration): 34.1 ± 13.6 ng/mL | concentration at 6 h (in vivo; SD, Plasma concentration): 11.7 ± 3.9 ng/mL | concentration at 8 h (in vivo; SD, Plasma concentration): 5.23 ± 1.47 ng/mL | concentration at 12 h (in vivo; SD, Plasma concentration): 1.96 ± 0.66 ng/mL | AUC (in vivo; Sprague-Dawley (SD), AUC): 441 ± 93 ng·h/mL | Clint normalized by CYP content [8]: 3.47 ± 0.04 ml/min/nmol CYP protein
